Experimental data taken from US10544100B2, “Autophagy inhibitors” (priority 2011, dated 2020).

Columns and labels:
lysosome in U2OS cells = experiment: Inhibitory lysosomal mechanism of action (LysoTracker Red and LAMP1 staining); assay type: cell-based; settings: for LAMP1 staining / LysoTracker Red staining: at 304 for 3 hours; for LysoTracker Red staining: LysoTracker Red for the final hour; for intensity of LysoTracker Red staining (image analysis, line scan): indicating an increase in pH
Experimental: To determine deacidification of the lysosome, cells were incubated with LysoTracker Red, a dye that localizes to the lysosome based on the low acidity of the compartment. If the lysosome is no longer acidic, there is a loss in the amount of LysoTracker Red staining. Lysosomal inhibition was further determined by immunofluorescence of lysosome-associated membrane protein-1 (LAMP1). If the lysosome is inhibited, lysosomal turnover should decrease and an increase in the amount of LAMP1 staining would be apparent. U2OS cells were treated with Example 7 or Example 26 at […] for 3 hours, supplementing LysoTracker Red for the final hour.
Using image analysis software, the mean intensities of both the LAMP1 and LysoTracker Red staining were measured and represent altered intensity level between treatments on intensity plots. Individual points were measured using a line scan on the image analysis software, which measures the intensity across the path of a line at any given point. Not only does the presence of LAMP1 positive membranes increases, but the intensity in LAMP1 staining also increases with Example 7 and Example 26 treatment. The inverse relationship in intensity holds true for LysoTracker Red staining.

[1] = tested on: PLX-4032 resistant melanoma cell lines UACC1093 and UACC647; experiment: Combination interaction tumor cell viability (ATP luminescence), 72 hours; assay type: cell-based
Experimental: (§1) Tumor cell lines (H292, HCT116, A375, HCC1569, A498, N87, UACC1093, and UACC647) were cultured in RPMI 1640 supplemented with 5% fetal bovine serum and housed in a 5% CO2 Incubator at 37° C.
(§2) For combination interaction experiments, cells were plated on a 96 well microplate and allowed 24 hours to adhere. Drugs were administered to the drug plate by the following: compound stock solutions (20 mM) or combination agent stock solutions (20 mM) were added to a drug plate where a 1:10 dilution was performed. Following the dilutions, 2 μl of each VT-062 and standard agent was transferred to the corresponding wells in the cell-containing 96-well plate with 196 μl of growth media. The compound and combination agent was concurrently tested over a range of 0.1 pM-100 μM for 72 hours. Following 72 hours of continuous exposure cell viability was determined by measuring the ATP activity using a commercially available cell viability assay kit. Luminescence intensity was used to relative drug activity compared to control wells and used to graphically determine the IC50 of combination.

[2] = tested on: Tumor cell lines (H292, HCT116, A375, HCC1569, A498, N87, UACC1093, and UACC647); experiment: Single agent tumor cell viability (ATP luminescence), 72 hours; assay type: cell-based; settings: in the cell lines tested (FIGS. 1A, 1B, and C)
Experimental: as §1
as §2, with “single agent IC50 determination,” for “combination interaction experiments,”, “(10” for “(20 mM) or combination agent stock solutions (20”, “test compound” for “each VT-062 and standard agent”, “198” for “196”, “compounds were” for “compound and combination agent was concurrently”, “IC50.” for “IC50 of combination.”

[3] = tested on: A375 Human melanoma tumor cells; experiment: Human tumor xenograft study; assay type: in vivo; settings: A375 xenograft in female mice, oral, daily for 21 days; after 25 days
Experimental: Female mice were inoculated subcutaneously in the right flank with 0.1 ml of a 50% RPMI/50% Matrigel™ (BD Biosciences, Bedford, Mass.) mixture containing a suspension of A375 Human melanoma tumor cells (approximately 5×10^6 cells/mouse).
When tumor reached approximately 130 mg, mice were randomized into treatment groups. Body weights were recorded when the mice were randomized and were taken twice per week (on Study Days 3 and 7 for each cycle) thereafter in conjunction with tumor measurements. Treatment began on the day of randomization. Example 10 was delivered orally in a vehicle consisting of 5% DMA, 10% propylene glycol, 20% PEG 400, and 65% sterile water. Example 10 was administered daily for 21 days.

SMILES | intensity in LAMP1 staining (image analysis, line scan) (lysosome in U2OS cells) | LAMP1 staining (lysosome in U2OS cells) | LysoTracker Red staining (lysosome in U2OS cells) | intensity of LysoTracker Red staining (image analysis, line scan) (lysosome in U2OS cells) | increase in tumor growth inhibition in combination than Example 10 alone ([1]; in combination with PLX-4032, UACC1093 and UACC647 (FIGS. 4A and 4C)) | increase in tumor growth inhibition in combination than Example 10 alone ([1]; in combination with Temozelomide, UACC1093 and UACC647 (FIGS. 4B and 4D)) | tumor cell growth inhibition [2] | tumor growth inhibition (tumor weight) [3]
COc1ccc2nc3cc(Cl)ccc3c(NCCCCN3CCN(C)CC3)c2c1 [Example 7, 6-Chloro-2-methoxy-N-(4-(4-methylpiperazin-1-yl)butyl)acridin-9-amine] | increases | substantial increases in LAMP1 staining | essentially ablated LysoTracker Red staining | less intense LysoTracker Red staining |  |  |  | 
COc1ccc2nc3cc(Cl)ccc3c(NCCCCN(C)CC3CC3)c2c1 [Example 10, N^1-(6-Chloro-2-methoxyacridin-9-yl)-N^4-(cyclopropylmethyl)-N^4-methylbutane-1,4-diamine] |  |  |  |  | 2.6-3.25% | 7-30% | more than 75% | greater than 50%
CCN1CCC(Nc2c3c(nc4cc(Cl)ccc24)CCCC3)CC1 [Example 26, 6-Chloro-N-(1-ethylpiperidin-4-yl)-1,2,3,4-tetrahydroacridin-9-amine] | increases | substantial increases in LAMP1 staining | essentially ablated LysoTracker Red staining | less intense LysoTracker Red staining |  |  |  | 
